Values of other authors as cited in patent US20220142944A1, “TREATMENT OF SKIN DISORDERS WITH TOPICAL TAPINAROF-EGFR INHIBITOR COMPOSITIONS” (Sol-Gel Technologies Ltd., priority 2019, published 2022).

Tests used:
[1] = test system: atopic dermatitis and plaque psoriasis
[2] = not given; remark: listed apart in the source
[3] = 1% tapinarof arm compared with 0.5% arm or vehicle

| Structure (SMILES) | solubility | efficacy [1, 3] | onset of action [1, 3] | most frequent adverse events ([1]; topical tapinarof) | rate of treatment-emergent adverse events ([2]; 93 of 165 with tapinarof, vehicle 34 of 82 [41%]) [%] | intensity of treatment-emergent adverse events ([2]; in vivo) |
| --- | --- | --- | --- | --- | --- | --- |
| C#Cc1cccc(Nc2ncnc3cc(OCCOC)c(OCCOC)cc23)c1 [erlotinib] | poorly soluble |  |  |  |  |  |
| CC(C)c1c(O)cc(/C=C/c2ccccc2)cc1O [tapinarof, 3,5-dihydroxy-4-isopropyl-trans-stilbene] |  | higher efficacy | quicker onset of action | folliculitis and contact dermatitis | 56 | mild to moderate |
